The values that follow come from ChEMBL document CHEMBL1140551, “N-Benzyl-3-sulfonamidopyrrolidines as novel inhibitors of cell division in E. coli” (2007).

SMILES strings stand for the structures. In brackets after ≈: the same amount, converted by molar mass. Activity calls are given as the source filed them. The rule behind the calls is not given here.

Assay [1] relates to Escherichia coli. In words: Antimicrobial activity against AcrAB efflux pump-deficient Escherichia coli DCR39. It counts as functional.
For assay [2], the system named is Escherichia coli. In words: Inhibition of GTPase activity of Escherichia coli FtsZ at 100 uM.
In assay [3] the test system is Escherichia coli. The assay is described as follows: Induction of filamentation in Escherichia coli DCR39 at 5 uM after 15 hrs. It counts as functional, organism-based.

For orientation: MIC means the lowest concentration that inhibits growth of the organism. Broadly, the inhibition is the change of the read-out against control, counted positive when it falls. `Cc1ccc(F)cc1S(=O)(=O)N[C@@H]1CCN(Cc2ccc3[nH]ccc3c2)C1` displayed an MIC against Escherichia coli [1] greater than 80 µM. This compound also showed an inhibition in the assay with Escherichia coli [2] of 24.9%. Turning to `Cc1ccc(F)cc1S(=O)(=O)N[C@@H]1CCN(Cc2ccc(Oc3ccccc3)cc2)C1`, in the assay on Escherichia coli [1], the MIC came out at 20 µM (≈ 8.81 µg/mL). Moreover, the inhibition in the assay on Escherichia coli [2] is 12.3%. Compound `Cc1ccc(F)cc1S(=O)(=O)N[C@@H]1CCN(Cc2cccc3[nH]ccc23)C1` showed an MIC with Escherichia coli [1] greater than 80 µM. This compound also displayed an inhibition in the assay on Escherichia coli [2] of 29.9%. In the assay on Escherichia coli [1], `C#Cc1ccc(S(=O)(=O)N[C@@H]2CCN(Cc3ccc(CC(C)C)cc3)C2)cc1` registered an MIC of less than 12 µM. In the assay with Escherichia coli [1], `Cc1ccc(F)cc1S(=O)(=O)N[C@@H]1CCN(Cc2ccc(-c3ccccc3)cc2)C1` had an MIC of less than 10 µM. In the assay with Escherichia coli [2], the inhibition was determined as 9.4%. Regarding `CC(C)Cc1ccc(CN2CC[C@@H](NS(=O)(=O)c3cc(Cl)ccc3Cl)C2)cc1`, the result in the assay on Escherichia coli [3] was Active. In the assay on Escherichia coli [1], this compound displayed an MIC of 10 µM (≈ 4.41 µg/mL). For the compound `Cc1ccc(F)cc1S(=O)(=O)N[C@@H]1CCN(Cc2ccc(CC(C)C)cc2)C1`, in the assay on Escherichia coli [1], the MIC is less than 10 µM. The compound also returned an inhibition in the assay on Escherichia coli [2] of 13.7%. With `Cc1ccc(F)cc1S(=O)(=O)N[C@@H]1CCN(Cc2ccc3c(c2)OCO3)C1`, the MIC against Escherichia coli [1] was greater than 80 µM. Further, the inhibition with Escherichia coli [2] was 14.6%. Consider `CC(C)Cc1ccc(CN2CCC[C@@H](CNS(=O)(=O)c3cc(Cl)ccc3Cl)C2)cc1`, for which the MIC in the assay with Escherichia coli [1] came to 20 µM (≈ 9.39 µg/mL). In the assay with Escherichia coli [1], `Cc1ccc(F)cc1S(=O)(=O)N[C@@H]1CCN(C(=O)c2ccc(OC(C)C)cc2)C1` came in with an MIC greater than 80 µM. This compound also had an inhibition in the assay on Escherichia coli [2] of 31.9%. Take `Cc1ccc(F)cc1S(=O)(=O)N[C@@H]1CCN(Cc2ccc(Br)cc2)C1`: the minimal inhibitory concentration (MIC) with Escherichia coli [1] was greater than 80 µM. This compound also returned an inhibition in the assay with Escherichia coli [2] of 31.5%. In the case of `Cc1ccc(F)cc1S(=O)(=O)N[C@@H]1CCN(Cc2ccc(C(F)(F)F)cc2)C1`, the MIC against Escherichia coli [1] is greater than 80 µM. Also, the inhibition with Escherichia coli [2] is 26.9%. The compound `Cc1ccc(F)cc1S(=O)(=O)N[C@@H]1CCN(Cc2ccc(C(=O)c3ccccc3)cc2)C1` yielded an MIC with Escherichia coli [1] greater than 80 µM.

In the case of `C#Cc1ccc(S(=O)(=O)N[C@@H]2CCN(Cc3ccc(N=[N+]=[N-])cc3)C2)cc1`, the MIC against Escherichia coli [1] is greater than 40 µM. The same measure, in the same setting: the result for `C#Cc1ccc(S(=O)(=O)N[C@@H]2CCN(Cc3ccc(OC(C)C)c(N=[N+]=[N-])c3)C2)cc1` reads greater than 64 µM.
